The text below walks through data of US20050276762A1, “Topical compositions containing 5'-adenosine-diphosphate ribose” (priority 2004, published 2005).

In one data set the test system is Human A549 cells. As to conditions: for cytoprotection against H2O2 (in words): same concentration as ADP-ribose (25 or 50 μg/ml).
Data set [1] concerns the target poly (ADP-ribose) polymerase (PARP) (Homo sapiens, UniProt P09874). The data set is described as follows: PARP assay (in vitro PARP inhibition). As to conditions: same concentration as ADP-ribose (4 to 10 mM); FIG. 2. In kind it is biochemical. The procedure: 1. […] 2. Cover the plate with an adhesive plate sealer and incubate for 2 hours at room temperature (or overnight at 2-8° C.). 1. […] After the last wash, remove any remaining PBS by decanting. Invert the plate and blot it against clean paper toweling. Note, at this time plates can be air dried and stored covered at room temperature for later use. 2. Block the wells by adding 50 μL of Strep Diluent to each well. 3. Cover the plate with an adhesive plate sealer and incubate for 1 hour at room temperature (or overnight at 2-8° C.). […] PARP will autoribosylate in the presence of NAD. 1. […] After the last wash, remove any remaining PBS by decanting. Invert the plate and blot it against clean paper toweling. 2. […] 3. Add inhibitor of interest. The final reaction volume is 50 μL/well. […] Enzyme is added last. • For 24 wells: Make for 20=2×0.5 units=10 units • 20 wells×5 μL=100 μL 10 μL enzyme+90 μl of 1× PARP buffer […] 5. Incubate the plate for 30 minutes at room temperature. The extent of ribosylation is time dependant; therefore this step can be extended if desired. 1. […] After the last wash, remove any remaining PBS by decanting. Invert the plate and blot it against clean paper toweling. 2. Dilute Strep-HRP • Dilute 1:500 • For 20 wells=1,100 μL Strep diluent+2.2 μL Strep-HRP • Add 50 μL of diluted Strep-HRP to each well. 3. Incubate for 30 minutes at 37° C. […] After the last wash, remove any remaining PBS by decanting. Invert the plate and blot it against clean paper toweling. 5. Add 50 μL TACS-Sapphire dye to each well. Incubate for 10 minutes in the dark.

Chain of poly (ADP-ribose) polymerase (PARP) (P09874 whole entry): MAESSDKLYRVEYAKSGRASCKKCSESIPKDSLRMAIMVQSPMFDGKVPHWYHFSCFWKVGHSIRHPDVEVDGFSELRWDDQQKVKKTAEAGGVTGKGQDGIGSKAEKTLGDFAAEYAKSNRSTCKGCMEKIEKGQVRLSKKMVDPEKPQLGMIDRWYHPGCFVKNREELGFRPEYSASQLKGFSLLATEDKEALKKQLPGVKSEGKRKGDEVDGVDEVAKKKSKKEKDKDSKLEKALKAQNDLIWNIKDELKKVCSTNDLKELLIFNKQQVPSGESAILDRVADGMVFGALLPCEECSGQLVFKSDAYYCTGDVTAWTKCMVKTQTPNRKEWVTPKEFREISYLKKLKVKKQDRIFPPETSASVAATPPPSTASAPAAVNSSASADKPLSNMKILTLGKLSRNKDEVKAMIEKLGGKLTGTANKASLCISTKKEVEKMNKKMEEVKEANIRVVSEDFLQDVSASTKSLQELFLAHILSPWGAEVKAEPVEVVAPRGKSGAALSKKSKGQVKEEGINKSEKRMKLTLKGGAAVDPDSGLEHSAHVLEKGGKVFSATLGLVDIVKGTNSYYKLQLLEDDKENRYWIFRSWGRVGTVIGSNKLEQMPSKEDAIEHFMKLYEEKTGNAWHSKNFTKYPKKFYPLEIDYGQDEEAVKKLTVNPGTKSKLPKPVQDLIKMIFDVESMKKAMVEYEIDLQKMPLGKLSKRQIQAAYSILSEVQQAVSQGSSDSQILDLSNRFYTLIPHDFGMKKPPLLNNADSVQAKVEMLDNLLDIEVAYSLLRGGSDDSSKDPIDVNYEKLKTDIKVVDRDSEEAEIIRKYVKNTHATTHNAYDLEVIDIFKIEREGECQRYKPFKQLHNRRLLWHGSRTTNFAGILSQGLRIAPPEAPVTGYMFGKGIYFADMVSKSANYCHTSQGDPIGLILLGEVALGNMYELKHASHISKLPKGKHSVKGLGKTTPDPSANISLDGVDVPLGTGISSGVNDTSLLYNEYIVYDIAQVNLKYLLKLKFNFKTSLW

For the compound `Nc1ncnc2c1ncn2[C@@H]1O[C@H](COP(=O)(O)OP(=O)(O)O[C@H]2O[C@H](CO)[C@@H](O)[C@H](O)[C@H]2O)[C@@H](O)[C@H]1O` [ADP-glucose], in the data set on Human A549 cells, the “protection from H2O2 cytotoxicity” value is reported as about 25% and the “cytoprotection against H2O2 (in words)” value is given as “cytoprotection was specific to ADP-ribose”. For the same compound, the “inhibition of PARP activity (in words)” value in data set [1] is reported as “unable to inhibit PARP activity”.
In the case of `Nc1ncnc2c1ncn2[C@@H]1O[C@H](COP(=O)(O)O)[C@@H](O)[C@H]1O` [AMP], in the data set with Human A549 cells, the “cytoprotection against H2O2 (in words)” value is on record as “cytoprotection was specific to ADP-ribose”. Besides, the “inhibition of PARP activity (in words)” value in data set [1] is reported as “unable to inhibit PARP activity”.
On the same counts, the results for `Nc1ncnc2c1ncn2[C@@H]1O[C@H](CO)[C@@H](O)[C@H]1O` [adenosine] are “cytoprotection was specific to ADP-ribose” and “unable to inhibit PARP activity”.
As for `N=c1c2ncn3c2ncn1[C@@H]1O[C@H](COP(=O)(O)OP(=O)(O)OC[C@H]2O[C@@H]3[C@H](O)[C@@H]2O)[C@@H](O)[C@H]1O` [cADP-ribose], the “protection of cells from cytotoxicity mediated cell death (in words)” value in the data set with Human A549 cells is recorded as “unable to protect cells from cytotoxicity mediated cell death”.
